From ChEMBL document CHEMBL4350985, “1,3-Dioxane as a scaffold for potent and selective 5-HT1AR agonist with in-vivo anxiolytic, anti-depressant and anti-nociceptive activity” (Eur J Med Chem, 2019)
The source made the active and inactive calls. The rule behind the calls is not given here.

Key:
[1] = target: T1, Alpha-1D adrenergic receptor (Rattus norvegicus) (UniProt P23944); assay: Antagonist activity at alpha-1d adrenergic receptor in Wistar rat thoracic aorta assessed as inhibition of (-)-noradrenaline-induced contractions
T1 sequence (whole entry): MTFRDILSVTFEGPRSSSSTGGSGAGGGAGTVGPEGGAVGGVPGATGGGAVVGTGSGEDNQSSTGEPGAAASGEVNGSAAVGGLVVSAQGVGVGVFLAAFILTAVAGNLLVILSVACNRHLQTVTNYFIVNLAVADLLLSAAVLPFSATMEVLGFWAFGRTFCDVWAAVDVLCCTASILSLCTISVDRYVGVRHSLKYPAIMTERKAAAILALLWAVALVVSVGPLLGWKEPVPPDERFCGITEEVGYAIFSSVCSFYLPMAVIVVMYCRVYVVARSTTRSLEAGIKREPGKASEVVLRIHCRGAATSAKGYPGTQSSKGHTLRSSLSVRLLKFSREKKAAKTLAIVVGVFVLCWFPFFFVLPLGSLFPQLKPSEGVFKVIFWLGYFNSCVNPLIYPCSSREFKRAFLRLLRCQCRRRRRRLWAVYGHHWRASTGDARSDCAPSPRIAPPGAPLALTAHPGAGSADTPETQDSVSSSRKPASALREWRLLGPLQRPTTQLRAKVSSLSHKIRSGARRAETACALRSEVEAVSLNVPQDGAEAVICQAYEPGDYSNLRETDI

[2] = target: T2, 5-hydroxytryptamine receptor 1A (Homo sapiens, UniProt P08908); assay: Displacement of [3H]8-OH-DPAT from human cloned 5HT-1AR transfected in HeLa cells incubated for 30 mins by liquid scintillation counter; format: cell-based
T2 sequence (P08908 whole entry): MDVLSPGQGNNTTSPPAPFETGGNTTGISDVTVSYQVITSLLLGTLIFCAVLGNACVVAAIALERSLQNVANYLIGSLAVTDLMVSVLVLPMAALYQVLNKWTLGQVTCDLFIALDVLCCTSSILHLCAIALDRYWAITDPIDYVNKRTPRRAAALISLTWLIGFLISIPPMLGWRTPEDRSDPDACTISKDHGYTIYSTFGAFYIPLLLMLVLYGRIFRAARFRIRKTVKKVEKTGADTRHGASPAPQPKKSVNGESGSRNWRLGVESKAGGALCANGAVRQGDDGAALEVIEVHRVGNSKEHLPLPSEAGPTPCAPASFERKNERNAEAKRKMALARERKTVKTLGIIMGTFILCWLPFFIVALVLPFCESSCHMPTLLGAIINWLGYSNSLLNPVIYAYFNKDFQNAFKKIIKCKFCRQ

[3] = target: T3, Alpha-1B adrenergic receptor (Homo sapiens, UniProt P35368); assay: Displacement of [3H] prazosin from human cloned adrenoceptor alpha 1B expressed in CHO cell membrane incubated for 30 mins by liquid scintillation counter
T3 sequence (P35368 whole entry): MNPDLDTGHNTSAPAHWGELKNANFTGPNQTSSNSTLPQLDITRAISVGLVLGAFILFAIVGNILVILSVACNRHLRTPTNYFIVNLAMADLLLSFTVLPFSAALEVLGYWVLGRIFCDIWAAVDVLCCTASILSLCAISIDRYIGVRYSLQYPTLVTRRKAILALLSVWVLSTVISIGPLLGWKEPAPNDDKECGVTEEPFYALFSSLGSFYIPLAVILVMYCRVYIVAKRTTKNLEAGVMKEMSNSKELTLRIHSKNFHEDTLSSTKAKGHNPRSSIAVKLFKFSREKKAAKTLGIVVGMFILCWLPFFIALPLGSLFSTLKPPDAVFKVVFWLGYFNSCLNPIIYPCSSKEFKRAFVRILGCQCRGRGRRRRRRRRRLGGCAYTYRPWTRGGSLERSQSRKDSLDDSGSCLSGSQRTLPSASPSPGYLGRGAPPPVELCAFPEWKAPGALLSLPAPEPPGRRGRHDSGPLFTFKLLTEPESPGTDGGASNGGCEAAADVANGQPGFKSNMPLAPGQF

[4] = target: T4, Alpha-1D adrenergic receptor (Homo sapiens, UniProt P25100); assay: biochemical
T4 sequence (P25100 whole entry): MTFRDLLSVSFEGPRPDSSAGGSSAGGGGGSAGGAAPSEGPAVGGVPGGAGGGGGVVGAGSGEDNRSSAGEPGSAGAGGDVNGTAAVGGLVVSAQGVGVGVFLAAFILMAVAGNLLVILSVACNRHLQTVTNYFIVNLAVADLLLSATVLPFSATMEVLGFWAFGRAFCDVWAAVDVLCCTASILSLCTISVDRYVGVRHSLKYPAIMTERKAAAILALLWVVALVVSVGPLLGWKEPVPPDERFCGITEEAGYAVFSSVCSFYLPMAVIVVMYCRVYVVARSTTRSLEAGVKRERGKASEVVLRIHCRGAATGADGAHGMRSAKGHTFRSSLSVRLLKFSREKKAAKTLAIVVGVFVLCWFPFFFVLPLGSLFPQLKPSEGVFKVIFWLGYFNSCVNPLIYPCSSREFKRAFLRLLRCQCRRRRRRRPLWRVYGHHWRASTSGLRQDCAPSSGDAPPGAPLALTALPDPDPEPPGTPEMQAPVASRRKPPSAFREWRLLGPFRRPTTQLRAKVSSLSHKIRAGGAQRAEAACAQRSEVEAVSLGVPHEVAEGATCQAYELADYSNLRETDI
Description: Displacement of [3H] prazosin from human cloned adrenoceptor alpha 1D expressed in CHO cell membrane incubated for 30 mins by liquid scintillation counter

[5] = target: T5, Alpha-1B adrenergic receptor (Rattus norvegicus) (UniProt P15823); assay: Antagonist activity at alpha-1b adrenergic receptor in Wistar rat spleen assessed as inhibition of (-)-phenylephrine-induced contraction; format: tissue-based
T5 sequence (whole entry): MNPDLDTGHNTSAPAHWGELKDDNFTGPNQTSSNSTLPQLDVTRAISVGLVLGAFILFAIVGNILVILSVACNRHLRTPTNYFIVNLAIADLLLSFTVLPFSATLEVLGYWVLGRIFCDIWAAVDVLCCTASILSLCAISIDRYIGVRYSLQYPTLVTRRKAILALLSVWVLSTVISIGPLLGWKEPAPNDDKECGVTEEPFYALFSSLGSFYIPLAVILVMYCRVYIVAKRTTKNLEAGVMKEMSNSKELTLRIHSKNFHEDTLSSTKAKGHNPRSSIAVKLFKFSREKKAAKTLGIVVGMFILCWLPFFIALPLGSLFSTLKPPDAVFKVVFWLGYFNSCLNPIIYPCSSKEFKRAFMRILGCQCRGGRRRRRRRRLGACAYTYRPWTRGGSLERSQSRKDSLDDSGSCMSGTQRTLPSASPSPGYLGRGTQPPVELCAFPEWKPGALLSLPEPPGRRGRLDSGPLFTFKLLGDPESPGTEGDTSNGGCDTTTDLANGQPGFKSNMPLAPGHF

[6] = target: T6, Alpha-1A adrenergic receptor (Homo sapiens, UniProt P35348); assay: biochemical
T6 sequence (P35348 whole entry): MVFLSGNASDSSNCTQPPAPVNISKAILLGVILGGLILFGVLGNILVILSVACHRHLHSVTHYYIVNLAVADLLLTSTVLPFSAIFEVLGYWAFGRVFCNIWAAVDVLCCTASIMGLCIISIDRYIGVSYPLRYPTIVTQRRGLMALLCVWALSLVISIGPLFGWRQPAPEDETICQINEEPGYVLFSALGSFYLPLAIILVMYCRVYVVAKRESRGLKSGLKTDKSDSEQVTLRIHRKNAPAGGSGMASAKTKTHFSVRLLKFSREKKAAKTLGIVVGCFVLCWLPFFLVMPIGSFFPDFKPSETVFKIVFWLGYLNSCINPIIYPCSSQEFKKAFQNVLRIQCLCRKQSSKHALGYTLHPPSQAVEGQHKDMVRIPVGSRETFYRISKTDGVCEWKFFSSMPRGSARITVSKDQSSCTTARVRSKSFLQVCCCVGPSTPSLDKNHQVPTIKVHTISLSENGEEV
Description: Displacement of [3H] prazosin from human cloned adrenoceptor alpha 1A expressed in CHO cell membrane incubated for 30 mins by liquid scintillation counting

[7] = target: T7, Alpha-1A adrenergic receptor (Rattus norvegicus) (UniProt P43140); assay: Antagonist activity at alpha-1a adrenergic receptor in Wistar rat prostatic vas deferens assessed as inhibition of (-)-noradrenaline-induced contraction
T7 sequence (whole entry): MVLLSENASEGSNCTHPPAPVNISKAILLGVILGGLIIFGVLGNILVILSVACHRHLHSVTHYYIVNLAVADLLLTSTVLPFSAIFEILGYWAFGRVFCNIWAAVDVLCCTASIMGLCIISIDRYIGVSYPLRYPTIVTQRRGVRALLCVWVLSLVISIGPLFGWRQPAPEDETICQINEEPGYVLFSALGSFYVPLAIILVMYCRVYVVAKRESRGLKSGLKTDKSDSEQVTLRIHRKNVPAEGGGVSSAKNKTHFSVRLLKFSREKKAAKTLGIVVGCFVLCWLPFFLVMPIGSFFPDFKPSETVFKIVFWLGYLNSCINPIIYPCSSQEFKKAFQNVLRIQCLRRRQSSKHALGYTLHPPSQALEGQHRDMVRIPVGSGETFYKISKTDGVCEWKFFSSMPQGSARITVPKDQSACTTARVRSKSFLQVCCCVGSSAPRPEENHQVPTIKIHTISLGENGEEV

[8] = target: T8, 5-hydroxytryptamine receptor 1A (Homo sapiens) (UniProt P08908); details: HeLa
T8 sequence (whole entry): T2 sequence (P08908 whole entry)
Description: Agonist activity at human recombinant 5HT1A receptor expressed in human HeLa cells assessed as increase in [35S]GTPgammaS binding incubated for 20 mins by liquid scintillation counter

Rattus norvegicus [9] = species on record: Rattus norvegicus; assay: Selectivity for antagonist activity at Wistar rat thoracic aorta alpha 1D adrenoceptor over antagonist activity at Wistar rat prostate vas deferens alpha 1A adrenoceptor
Rattus norvegicus [10] = species on record: Rattus norvegicus; assay: Selectivity for antagonist activity at Wistar rat thoracic aorta alpha 1D adrenoceptor over antagonist activity at Wistar rat spleen alpha 1B adrenoceptor
[11] = Half life in Sprague-Dawley rat plasma at 10 mg/kg, po measured upto 480 mins by LC/MS-MS analysis; format: ADME, organism-based
Rattus norvegicus [12] = assay: Anxiolytic activity at Sprague-Dawley rat assessed as increase in time spent in open arm at 0.5 mg/kg, ip by EPM test relative to control; format: functional
Rattus norvegicus [13] = assay: Antidepressant activity in Sprague-Dawley rat assessed as time spent on climbing at 0.5 mg/kg, ip by forced swim test; format: functional, organism-based
Rattus norvegicus [14] = assay: Effect on locomotory activity in Sprague-Dawley rat assessed as distance travelled at 0.5 mg/kg, ip by open field test; format: functional, organism-based
Rattus norvegicus [15] = assay: Anxiolytic activity at Sprague-Dawley rat assessed as number of open arm entries at 0.5 mg/kg, ip by EPM test; format: functional, organism-based
Rattus norvegicus [16] = assay: Antidepressant activity in Sprague-Dawley rat assessed as decrease in time of immobilization at 0.5 mg/kg, ip by forced swim test; format: functional, organism-based
Rattus norvegicus [17] = assay: Antidepressant activity in Sprague-Dawley rat assessed as increase in time spent in swimming at 0.5 mg/kg, ip by forced swim test; format: functional, organism-based

## c1ccc(OCCNCC[C@H]2CO[C@H](C(c3ccccc3)c3ccccc3)O2)cc1 (relative stereo)
[1]
  pKb: 7.22
[2]
  Ki: 57.5 nM
[3]
  Ki: 166 nM
[4]
  Ki: 95.5 nM
[5]
  pKb: 6.66
[6]
  Ki: 89.1 nM
[7]
  pKb: 5.71

## c1ccc(OCCNC[C@@H]2CO[C@H](C(c3ccccc3)c3ccccc3)O2)cc1 (relative stereo)
[1]
  pKb: 6.72
[2]
  Ki: 11.5 nM
[3]
  Ki: 102 nM
[4]
  Ki: 29.5 nM
[5]
  pKb: 6.83
[6]
  Ki: 427 nM
[7]
  pKb: 6.22

## COc1ccccc1OCCNCC1COC(c2ccccc2)(c2ccccc2)O1 (stereo unspecified)
[1]
  pKb: 8.65
[5]
  pKb: 7.36
[7]
  pKb: 7.53
[8]
  pD2: 7.36

## c1ccc(OCCNC[C@H]2CO[C@H](C(c3ccccc3)c3ccccc3)O2)cc1 (relative stereo)
[1]
  pKb: 6.7
[2]
  Ki: 5.25 nM
[3]
  Ki: 102 nM
[4]
  Ki: 87.1 nM
[5]
  pKb: 6.26
[6]
  Ki: 120 nM
[7]
  pKb: 6.29

## COc1ccccc1OCCNC[C@H]1CO[C@H](C(c2ccccc2)c2ccccc2)O1 (relative stereo)
[1]
  pKb: 7.64
[2]
  Ki: 2 nM
[3]
  Ki: 27.5 nM
[4]
  Ki: 7.08 nM
[5]
  pKb: 6.82
[6]
  Ki: 30.9 nM
[7]
  pKb: 6.78

## COc1ccccc1OCCNC[C@@H]1CO[C@H](C(c2ccccc2)c2ccccc2)O1 (relative stereo)
[1]
  pKb: 7.52
[2]
  Ki: 3.16 nM
[3]
  Ki: 37.2 nM
[4]
  Ki: 4.37 nM
[5]
  pKb: 6.75
[6]
  Ki: 977 nM
[7]
  pKb: 6.16

## c1ccc(OCCNCC[C@@H]2CO[C@H](C(c3ccccc3)c3ccccc3)O2)cc1 (relative stereo)
[1]
  pKb: 7.15
[2]
  Ki: 60.3 nM
[3]
  Ki: 107 nM
[4]
  Ki: 75.9 nM
[5]
  pKb: 6.43
[6]
  Ki: 170 nM
[7]
  pKb: 6.14

## c1ccc(OCCNCC2COC(c3ccccc3)(c3ccccc3)O2)cc1 (stereo unspecified)
[1]
  pKb: 8.37
Rattus norvegicus [9]
  Ratio pKb: > 100
[5]
  pKb: 5.86
[7]
  pKb: 6.16
[8]
  pD2: 8.8
Rattus norvegicus [10]
  Ratio pKb: > 100

## c1ccc(OCCNCCC2COC(c3ccccc3)(c3ccccc3)O2)cc1 (stereo unspecified)
[1]
  pKb: 7.04
[2]
  Ki: 724 nM
[3]
  Ki: 95.5 nM
[4]
  Ki: 30.2 nM
[5]
  pKb: 6.49
[6]
  Ki: 58.9 nM
[7]
  pKb: 6.34

## Br.CCCN(CCC)C1CCc2cccc(O)c2C1 (stereo unspecified)
[11]
  half-life: 27 min
Rattus norvegicus [12]
  Activity: 19%
Rattus norvegicus [13]
  Activity: inactive
Rattus norvegicus [14]
  Activity: inactive
Rattus norvegicus [15]
  Activity: inactive
Rattus norvegicus [16]
  inhibition: Active
Rattus norvegicus [17]
  Activity: Active
